According to paper PMC4222603, “Dual inhibition of HIV-1 replication by integrase-LEDGF allosteric inhibitors is predominant at the post-integration stage” (Retrovirology, 2013):

Legend:
[1] = molecular target: T1, IN 3′ processing activity (Human immunodeficiency virus type 1 group M subtype B, UniProt P12497); assay: IN 3′ processing radioactive assay; format: biochemical, HIV-1; settings: at 100 nM
T1 construct: were carried out at 37°C with the full-length HIV-1 IN
From the text: (§1) Sequences of the different oligonucleotides (ODN) substrates are U5B: 5′-[…]-3′, U5A: 5′- […]-3′ and U5B-2: 5′-[…]-3′. ODNs were purchased from Eurogentec and further purified by electrophoresis in a denaturing 16% acrylamide/urea gel. For activity assays, ODNs (U5B and U5B-2) were radiolabelled with T4 polynucleotide kinase (New England Biolabs) and γ[^32-P]ATP (3000 Ci/mmol) (Amersham), and purified on a Sephadex G-10 column (GE Healthcare). Double-stranded ODNs (U5B with U5A and U5B-2 with U5A used for 3′-processing and strand transfer reactions, respectively) were obtained by mixing equimolar amounts of complementary strands in the presence of 100 mM NaCl.
(§2) IN activity assays – 3′-processing, strand transfer – were carried out at 37°C with the full-length HIV-1 IN, in a buffer containing 10 mM HEPES (pH 7.2), 1 mM DTT, 7.5 mM MgCl2 in the presence of 6.25 nM DNA (3′-processing) or 12.5 nM DNA (strand transfer) as described previously. For negative control, 100 mM Na2EDTA was added to the reaction before incubation. Products were separated by electrophoresis in denaturing 16% acrylamide/urea gels. Gels were analysed with a Molecular Dynamics STORM phosphoimager and quantified with ImageQuant™ 4.1 software.

[2] = molecular target: T2, IN strand transfer activity (full-length HIV-1 IN) (Human immunodeficiency virus type 1 group M subtype B, UniProt P12497); assay: IN strand transfer radioactive assay; format: biochemical
T2 construct: were carried out at 37°C with the full-length HIV-1 IN
From the text: as §1, §2

[3] = molecular target: His6-IN A128T (HIV-1 NL4-3 integrase mutant A128T) (HIV-1 NL4-3); assay: SEC; Superdex 200 10/300 GL, 0.4 mL/min, 50 mM HEPES pH 7.5, 1 M NaCl, 7 mM CHAPS, 5 mM MgCl2, 10 mM DTT, 10% glycerol, room temperature; His6-IN wt 21 uM or His6-IN A128T 40 uM; no compound
[4] = molecular target: His6-IN A128T (HIV-1 NL4-3 integrase mutant A128T) (HIV-1 NL4-3); assay: SEC; Superdex 200 10/300 GL, 0.4 mL/min, 50 mM HEPES pH 7.5, 1 M NaCl, 7 mM CHAPS, 5 mM MgCl2, 10 mM DTT, 10% glycerol, room temperature; His6-IN wt 21 uM or His6-IN A128T 40 uM incubated for 10 min with 100 uM BI-D or Mut101 before injection

| Molecule | inhibition at 0.1 µM [1] [%] | IC50 [2] [nM] | stoichiometry N [3] | stoichiometry N [4] |
| --- | --- | --- | --- | --- |
| C[C@@H]1CCO[C@H]2Cn3cc(C(=O)NCc4ccc(F)cc4F)c(=O)c(O)c3C(=O)N12 [DTG, Dolutegravir, reference compound] | 16 | 2.7 | – | – |
| His6-IN A128T (HIV-1 NL4-3 integrase mutant A128T) (enzyme) | – | – | 2 | 4 |
